# Assays:
# [1] = Phase 1 open label pharmacokinetic study of oral deflazacort tablets (0.9 mg/kg/day, 8 days) in children and adolescents with DMD; format: in vivo, human; details: for geometric mean terminal elimination half-life: Day 1; for time by which plasma concentrations were quantifiable (first post-dose sample): all children and adolescents, Days 1 and 8
# Description: FIG. 1 is a line graph illustrating mean plasma 21-desDFZ (active deflazacort metabolite) concentration (ng/mL; y-axis) vs. time (hours; x-axis) overlaid by study population on Day 8 (linear scale; circles=adolescent; triangles=child). Children (ages 5-11, inclusive) and adolescents (ages 12-16, inclusive) were administered the weight-based regimen of 0.9 mg/kg/day deflazacort orally once daily for 8 days. Blood samples were collected through eight hours post-dose. Blood samples were processed to plasma and concentrations of 21-desDFZ were measured using validated bioanalytical assays.
# Pharmacokinetic analysis was performed as part of an open label, Phase 1 single-period study. Twenty-six (26) male DMD subjects were enrolled, consisting of children (ages 4 up to 12) and adolescents (ages 12 to 16, inclusive) with at least 12 subjects between the ages of 4 and 12 (children). The primary objective of the study was characterization of the single-dose and steady-state PK of deflazacort and its active deflazacort metabolite (21-desDFZ). The characterization of the PK of the 21-desDFZ metabolite 6β-OH-21-desDFZ was included as a secondary outcome. A total of 24 subjects (16 children and 8 adolescents) received deflazacort tablets (0.9 mg/kg/day) for 8 days. Blood samples for PK profiles were collected on Days 1 and 8. All 24 subjects who completed the study had sufficient data to use in the PK analysis. Plasma 21-desDFZ concentrations were quantifiable by the time of the first post-dose sample collection (0.5 hours) in all children and adolescents on Days 1 and 8. Plasma 21-desDFZ concentrations remained above the limit of quantification in most subjects over the 8-hour sampling window on both study days.
# [2] = Applicants' clinical observation of deflazacort in ambulatory and non-ambulatory DMD patients; format: in vivo, human; details: as early as six weeks after treatment initiation, preserved up to 24-months
# [3] = Day 1, deflazacort 0.9 mg/kg/day orally
# [4] = Day 8, deflazacort 0.9 mg/kg/day orally
# [5] = Days 1 and 8, deflazacort 0.9 mg/kg/day orally
# [6] = after a single oral dose of deflazacort and at steady-state
"geometric mean Cmax, adolescents relative to children [1, 3]","geometric mean Cmax, adolescents relative to children [1, 4] [fold]","geometric mean AUCinf, adolescents relative to children [1, 5]","geometric mean AUClast, adolescents relative to children [1, 5]",geometric mean terminal elimination half-life ([1]; adolescents) [h],time by which plasma concentrations were quantifiable (first post-dose sample) [1] [h],geometric mean terminal elimination half-life ([1]; children) [h],"mean plasma concentration in children as percent of that observed in adolescents ([1]; about one hour following administration, Day 8, deflazacort 0.9 mg/kg/day orally) [%]","clearance (CL/F), children vs adolescents [1, 6]","volume of distribution (Vd/F), children vs adolescents [1, 6]",Structure (SMILES),muscle strength in ambulatory and non-ambulatory patients [2]
roughly 1.25 fold,~1.30,roughly 1.25 Fold,roughly 1.25 Fold,1.72,≤ 0.5,1.63,,,,CC1=N[C@]2(C(=O)CO)[C@@H](C[C@H]3[C@@H]4C[C@@H](O)C5=CC(=O)C=C[C@]5(C)[C@H]4[C@@H](O)C[C@@]32C)O1 [6β-OH-21-desDFZ],
,,,,,,,,,,"CC(=O)OCC(=O)[C@@]12N=C(C)O[C@@H]1C[C@H]1[C@@H]3CCC4=CC(=O)C=C[C@]4(C)[C@H]3[C@@H](O)C[C@@]12C [deflazacort, (11β,16β)-21-(acetyloxy)-11-hydroxy-2′-methyl-5′H-pregna-1,4-dieno[17,16-d]oxazole-3,20-dione]",improves muscle strength
almost double,1.5,,,1.34,≤ 0.5,1.17,67,no differences,no differences,"CC1=N[C@]2(C(=O)CO)[C@@H](C[C@H]3[C@@H]4CCC5=CC(=O)C=C[C@]5(C)[C@H]4[C@@H](O)C[C@@]32C)O1 [21-desDFZ, 21-desacetyldeflazacort]",

# Source: patent publication US11083737B1, “Methods of administering deflazacort therapy” (PTC Therapeutics, Inc., priority 2016, dated 2021)
